Test results taken from publication PMC6356231, “Capillasterin A, a Novel Pyrano[2,3-f]chromene from the Australian Crinoid Capillaster multiradiatus” (Marine Drugs, 2019).
Read-outs that look alike come from different tables or passages of the source.

Assays:
[1] = system: multidrug transporter ABCG2; design: method as in PMID 20627559; settings: cited from earlier work
HIV-1 strain NL4.3 = test: multi-cycle HIV-1 replication assay in CEM-GXR GFP-reporter T cells; type: cell-based; settings: for EC50: read-out: EC50, in vitro HIV-1 replication; for inhibition of HIV-1 replication (in words): CEM-GXR T cell line
Protocol: The ability of compounds 1–7 to inhibit HIV-1 replication was evaluated in vitro using an established multi-cycle replication assay. Briefly, the CEM-GXR T cell line, which contains an HIV-1 promoter-driven green fluorescent protein (GFP) reporter, was infected with the full-length, infectious HIV-1 strain NL4.3 at a multiplicity of infection of 0.03 [18]. After 24 hours, cells were washed and subsequently incubated with compounds 1–7, the control HIV inhibitor efavirenz, or 0.1% DMSO vehicle control. GFP expression, a marker of viral replication, was then measured by flow cytometry after 72 hours.
(§1) The following reagents were obtained from the NIH AIDS Reagent Program: CEM CD4^+ cells (CEM) from Dr. J.P. Jacobs, [23] and pNL4-3 from M. Martin [24]. Efavirenz and panobinostat were purchased from Sigma-Aldrich (St. Louis, MO, USA). CEM and CEM-derived GXR25 GFP-reporter T cells (CEM-GXR; [18]) were cultured in R10+ medium [RPMI-1640 with HEPES and L-Glutamine (Lonza, Basel, Switzerland), 10% fetal calf serum, 100 U of penicillin/mL, and 100 µg of streptomycin/mL Sigma-Aldrich (St. Louis, MO, USA)]. Production of HIV-1 NL4.3 and multi-cycle HIV-1 replication assays were performed as described previously. Apoptosis assays were performed by staining CEM cells with annexin V-APC (BioLegend, San Diego, CA) according to manufacturer instructions.

[2] = system: GFP-expressing immortalised mouse olfactory ensheathing cells (mOEC); test: mOEC cell proliferation (resazurin viability) assay; type: cell-based; settings: 10 µM, 24 hours of treatment
Protocol: Compounds 1–7 have now been added to the Davis Open-Access Compound Library housed at Compounds Australia, Griffith University, where they are available for collaboration in drug discovery or chemical biology research.
The cell proliferation assay was performed according to the method described by Chen et al., with modification. Briefly, GFP-expressing immortalised mouse OECs (mOEC) were seeded at 2000 cells/well in a 384-well microplate (Greiner Bio-One, Kremsmünster, Austria) with a Multidrop™ Combi Reagent Dispenser (Thermo Fisher Scientific, Waltham, MA, USA) using the BioCel Automation System (Agilent Technologies, Santa Clara, CA, USA) and incubated overnight at 37 °C under 5% CO2. After 24 hours, the cells were treated with 4 different concentrations of pure compounds (10, 1, 0.1 and 0.01 µM). 0.2% DMSO was used as negative control. Plates were incubated for 24 hours at 37 °C under 5% CO2. Cell viability of mOECs was measured by adding 5 µL of resazurin (500 μM, Sigma-Aldrich, Sydney, Australia) to the cells and incubated in dark for 4 hours at 37 °C under 5% CO2. The dehydrogenase enzymes found in metabolically active cells will convert resazurin to resofurin products that are soluble in culture medium. The fluorescent resofurin products produced by the viable cells are quantified using an EnVision™ Multilabel (PerkinElmer, Waltham, MA, USA) plate reader at 535/595nm. After that, the cells were fixed and stained with Hoechst (Thermo Fisher Scientific, Waltham, MA, USA) and stored at 4 °C prior to imaging. Cells were imaged automatically using Operetta™ (PerkinElmer, Waltham, MA, USA). Individual cell segmentation and cell count were performed using the Harmony 3.5.2® software.

CEM cells = test: apoptosis (annexin V-APC) cellular toxicity assay in CEM cells; type: cell-based; settings: 72 hours
Protocol: Compounds 1–7 were further assessed for cellular toxicity in CEM cells, the parental cell line of CEM-GXR. After 72 hours’ treatment with compounds, toxicity was assessed by measuring the surface expression of the early apoptotic marker annexin V by flow cytometry (by staining with annexin V-APC). […] In contrast, no increase in apoptosis was observed up to 100 µM for compounds 1–7, with the exception of compound 2, which induced 1.4 ± 0.2 and 2.2 ± 0.4-fold increases at 30 and 100 µM, respectively.
as §1

[3] = compound stability (observation); type: physicochemical
[4] = Human immunodeficiency virus 1, CEM-GXR T cells, HIV-1 NL4.3, MOI 0.03, GFP by flow cytometry after 72 hours, mean ± s.d. of three independent experiments

Structure (SMILES): CCCc1cc(=O)c2c(O)c3c(OC)cc(O)cc3c(OC)c2o1
- inhibition of ABCG2 (in words) [1]: inhibit

Structure (SMILES): CCCc1cc(=O)c2c(cc(C(C)=O)c3c(OC)cc(=O)oc32)o1 [Compound 1, 5-acetyl-4-methoxy-8-propylpyrano[2,3-f]chromene-2,10-dione]
- EC50 (HIV-1 strain NL4.3; [4]): > 100 µM
- increase in mOEC viability (in words) [2]: none of the compounds showed a significant increase

Structure (SMILES): CCCc1cc(=O)c2c(O)cc3cc(O)cc(OC)c3c2o1 [Compound 2, comaparvin]
- fold increase in activity as compared to 5 (HIV-1 strain NL4.3; HIV-1 replication EC50, angular vs linear naphthopyrone): approximately 2.0 fold
- EC50 (HIV-1 strain NL4.3; [4]): 7.5 ± 1.7 µM
- fold increase in apoptotic cells relative to 0.1% DMSO (CEM cells; 30 µM): 1.4 ± 0.2 fold
- fold increase in apoptotic cells relative to 0.1% DMSO (CEM cells; 100 µM): 2.2 ± 0.4 fold

Structure (SMILES): COc1cc(O)cc2cc(O)c3c(=O)cc(C)oc3c12 [Compound 3, TMC-256C1]
- inhibition of HIV-1 replication (in words) (HIV-1 strain NL4.3): weaker but consistent antiviral activity
- fold reduction in activity compared to 2 (HIV-1 strain NL4.3; HIV-1 replication EC50, methyl instead of propyl at C-2): 3.4 fold
- EC50 (HIV-1 strain NL4.3; [4]): 25.5 ± 3.4 µM

Structure (SMILES): CCCc1cc(=O)c2c(OC)c(OC)c3cc(O)cc(OC)c3c2o1 [Compound 4, 6-methoxycomaparvin-5-methyl ether]
- EC50 (HIV-1 strain NL4.3; [4]): 14.5 ± 5.8 µM
- increase in mOEC viability (in words) [2]: none of the compounds showed a significant increase

Structure (SMILES): CCCc1cc(=O)c2c(O)c3c(OC)cc(O)cc3cc2o1 [Compound 5, 5,8-dihydroxy-6-methoxy-2-propyl-4H-naphtho[2,3-b]pyran-4-one]
- EC50 (HIV-1 strain NL4.3; [4]): 15.6 ± 6.5 µM

Structure (SMILES): CCCc1cc(=O)c2c(O)c3c(OC)cc(O)cc3c(OC)c2o1 [Compound 6, 5,8-dihydroxy-6,10-dimethoxy-2-propyl-4H-naphtho[2,3-b]pyran-4-one]
- EC50 (HIV-1 strain NL4.3; [4]): 20.2 ± 4.9 µM

Structure (SMILES): COc1cc(O)cc2cc3oc(C)cc(=O)c3c(O)c12 [Compound 7, TMC-256A1]
- inhibition of HIV-1 replication (in words) (HIV-1 strain NL4.3): no detectable activity
- EC50 (HIV-1 strain NL4.3; [4]): > 100 µM
- increase in mOEC viability (in words) [2]: none of the compounds showed a significant increase

Structure (SMILES): CCCc1cc(=O)c2c(O)c(OC)c3cc(O)cc(OC)c3c2o1 [Compound 8, 6-methoxycomaparvin]
- stability (in words) [3]: unstable

Structure (SMILES): O=C1Nc2ccc(Cl)cc2[C@@](C#CC2CC2)(C(F)(F)F)O1 [Efavirenz, reference compound]
- EC50 (HIV-1 strain NL4.3; Human immunodeficiency virus 1, CEM-GXR, 72 h): 0.0025 ± 0.0019 µM

Structure (SMILES): COc1cc(O)cc2cc3oc(C)cc(=O)c3c(O)c12 [TMC-256A1]
- inhibition of ABCG2 (in words) [1]: inhibit

Structure (SMILES): Cc1[nH]c2ccccc2c1CCNCc1ccc(/C=C/C(=O)NO)cc1 [panobinostat, reference compound]
- fold increase in apoptotic cells relative to 0.1% DMSO (CEM cells; 3 µM): 4.2 ± 1.8 fold
